For one assay, the target named is T1, PxylOR4/PxylOrco (Plutella xylostella, UniProt M9ZZM3).
T1 construct: full-length untagged ORF 1209 bp (402 residues); pSP64T cRNA co-injected with PxylOrco cRNA in Xenopus laevis oocytes; with Odorant receptor coreceptor
T1 sequence (M9ZZM3 1-402): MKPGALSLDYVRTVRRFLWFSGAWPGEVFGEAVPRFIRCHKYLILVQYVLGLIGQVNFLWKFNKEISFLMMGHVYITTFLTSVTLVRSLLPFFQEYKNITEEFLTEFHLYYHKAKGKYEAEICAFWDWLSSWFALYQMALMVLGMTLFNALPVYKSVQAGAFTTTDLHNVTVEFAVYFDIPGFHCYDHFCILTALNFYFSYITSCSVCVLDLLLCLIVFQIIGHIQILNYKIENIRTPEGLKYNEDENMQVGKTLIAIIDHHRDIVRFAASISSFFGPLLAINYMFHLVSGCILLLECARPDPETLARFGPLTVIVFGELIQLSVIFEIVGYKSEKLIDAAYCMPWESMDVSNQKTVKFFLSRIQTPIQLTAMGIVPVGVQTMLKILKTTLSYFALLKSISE
T1 sequence (D0EZE1 1-471 partner): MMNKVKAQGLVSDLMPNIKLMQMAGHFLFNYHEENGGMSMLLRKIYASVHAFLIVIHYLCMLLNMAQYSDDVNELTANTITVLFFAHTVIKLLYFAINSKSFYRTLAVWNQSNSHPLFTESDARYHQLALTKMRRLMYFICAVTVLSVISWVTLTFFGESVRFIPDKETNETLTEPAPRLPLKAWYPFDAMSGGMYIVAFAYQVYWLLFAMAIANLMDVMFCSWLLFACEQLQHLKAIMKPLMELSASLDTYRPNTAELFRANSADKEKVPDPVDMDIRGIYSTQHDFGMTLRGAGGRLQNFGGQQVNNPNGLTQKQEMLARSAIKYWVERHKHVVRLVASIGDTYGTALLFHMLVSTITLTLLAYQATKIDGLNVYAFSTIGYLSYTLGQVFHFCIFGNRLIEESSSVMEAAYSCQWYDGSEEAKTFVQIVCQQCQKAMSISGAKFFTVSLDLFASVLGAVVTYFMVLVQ
Description: two-electrode voltage clamp, Xenopus oocytes. Format: cell-based. Background: Two-electrode voltage clamp holds a large cell at a set potential and records current.

In another assay the target is T2, PxylOR1/PxylOrco (Plutella xylostella, UniProt N0A395).
T2 construct: full-length untagged ORF 1269 bp (422 residues); pSP64T cRNA co-injected with PxylOrco cRNA in Xenopus laevis oocytes; with Odorant receptor coreceptor
T2 sequence (N0A395 1-422): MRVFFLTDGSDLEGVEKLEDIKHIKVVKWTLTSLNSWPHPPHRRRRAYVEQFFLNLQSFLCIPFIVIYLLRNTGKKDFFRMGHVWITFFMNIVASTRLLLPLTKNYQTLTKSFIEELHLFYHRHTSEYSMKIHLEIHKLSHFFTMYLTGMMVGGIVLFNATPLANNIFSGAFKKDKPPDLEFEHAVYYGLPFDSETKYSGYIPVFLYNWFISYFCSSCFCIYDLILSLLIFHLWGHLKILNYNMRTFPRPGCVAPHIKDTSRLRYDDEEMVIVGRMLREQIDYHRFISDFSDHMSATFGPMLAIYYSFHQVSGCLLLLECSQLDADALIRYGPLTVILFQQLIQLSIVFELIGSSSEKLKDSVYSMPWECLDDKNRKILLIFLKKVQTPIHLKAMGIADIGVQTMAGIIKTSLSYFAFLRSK
T2 sequence (D0EZE1 1-471 partner): T1 sequence (D0EZE1 1-471 partner)
Description: two-electrode voltage clamp, Xenopus oocytes. In kind it is cell-based.

By EC50 is commonly meant the concentration needed to bring the measured effect to its halfway point.

In the case of `CCCC/C=C\CCCCCCCCOC(C)=O` [Z9-14:Ac, (Z)-9-tetradecenyl acetate], a half-maximal response on PxylOR4/PxylOrco (EC50) required 243 nM. That is a sub-micromolar value. In the case of `C/C=C/C/C=C\CCCCCCCCOC(C)=O` [Z9,E12-14:Ac], the midpoint of the response at PxylOR4/PxylOrco, the EC50, lay at 1940 nM. On PxylOR1/PxylOrco, `CCCC/C=C\CCCCCCCCCC=O` [Z11-16:Ald, (Z)-11-hexadecenal] showed an EC50 of 23900 nM.

(Values after article PMC3633919, “Identification and Characterization of Pheromone Receptors and Interplay between Receptors and Pheromone Binding Proteins in the Diamondback Moth, Plutella xyllostella” (PLoS ONE, 2013).)
